Data as given in US12599560B2, “Lipids and lipid nanoparticle formulations” (Longuide Biopharma Corporation, priority 2023, dated 2026).

Tests used:
[1] = Particle size and PDI by dynamic light scattering; assay type: physicochemical; conditions: Table 2; for Particle size (nm): LNP formulation with mRNA; for PDI: polydispersity value
Description: The 7.5 μL nucleic acid lipid nanoparticle solution (containing approximately 0.04 mg/mL mRNA) was taken and added with 200 μL ultrapure water, mixed by gentle blowing using a pipette tip, and the particle size of the nanopreparation was detected by dynamic lightscattering (DLS) using a Malvern Dynamic Light Scattering Instrument (Malvern Instruments Ltd., ZEN3700, UK). 27.5 μL nucleic acid lipid nanoparticle solution (containing about 0.04 mg/mL mRNA) was taken and added with 200 μL ultrapure water. A pipette tip was used to gently blow the sample and mix well. The particle size of the nanopreparation was detected by Malvern Dynamic Light Scattering Instrument (Malvern Instruments Ltd., ZEN3700, UK). After the detection, the sample was recovered to an EP tube, and 600 μL of ultrapure water was added, gently blown with a pipette tip, and the potential of the nanopreparation was measured by a Malvern particle size meter.

mice = test: In vivo delivery of FLuc-mRNA lipid nanoparticle preparations in mice (IVIS imaging); parameters: In vivo IVIS / In vivo IVIS (liver) / In vivo IVIS (spleen): unit not given here; conditions: for in vivo delivery efficiency as compared to the benchmark compound SM102: certain formulations
Description: 7. In Vivo Delivery of the Nucleic Acid Lipid Nanoparticle Preparations in Mice After the preparation was completed, the preparation was injected intramuscularly (mice rectus femoris muscle of the thigh) or intravenously (mice tail vein), with approximately 75 μL per mouse, for a total of 3 mice. After a certain time of injection, in vivo imaging (PerkinElmer, IVIS Lumina III) was performed. 10-15 minutes before imaging, 200 μL of 15 mg/mL D-Luciferin working solution was injected intraperitoneally, and the imaging analysis was performed using an in vivo imager.

[2] = molar ratio 1.09:8.66:30.25:60.00, N/P 21
[3] = molar ratio 1.40:11.15:38.95:48.50, N/P 21
[4] = Table 2, IV, whole body scan, molar ratio DMG-PEG2000:DSPC:Chol:Lipid and N/P
[5] = molar ratio 1.09:8.66:30.25:60.00, N/P 30
[6] = molar ratio 1.40:11.15:38.95:48.50, N/P 30
[7] = molar ratio 1.40:11.15:38.95:48.50, N/P 24
[8] = molar ratio 1.63:12.99:45.38:40.00, N/P 24
[9] = molar ratio 1.09:8.66:30.25:60.00, N/P 50
[10] = molar ratio 1.40:11.15:38.95:48.50, N/P 50
[11] = molar ratio 0.95:7.58:26.47:65.00, N/P 30
[12] = molar ratio 1.09:8.66:30.25:60.00, N/P 20
[13] = molar ratio 1.40:11.15:38.95:48.50, N/P 10

| Particle size (nm) [1] [nm] | PDI [1] | Compound | In vivo IVIS (mice; Table 2, IM, whole body scan) | In vivo IVIS (mice; [4]) | other results |
| --- | --- | --- | --- | --- | --- |
| – | – | CCCCCCCCCCNC(=O)C(O)CN1CCN(CCN(CC(O)C(=O)NCCCCCCCCCC)CC(O)C(=O)NCCCCCCCCCC)CC1 (stereo not shown) [Compound L0180] | 1.10 × 10^7 | 3.15 × 10^6 | Particle size (nm) [1, 2]: 84.26 ± 0.81 nm; Particle size (nm) [1, 3]: 86.34 ± 1.35 nm; PDI [1, 2]: 0.13 ± 0.01; PDI [1, 3]: 0.18 ± 0.01 |
| 71.39 ± 0.26 | 0.16 ± 0.02 | CCCCCCCCCCCCNC(=O)C(O)CN1CCN(CCN(CC(O)C(=O)NCCCCCCCCCCCC)CC(O)C(=O)NCCCCCCCCCCCC)CC1 (stereo not shown) [Compound L0181] | 3.37 × 10^6 | – | – |
| – | – | CCCCCCCCCCOC(=O)C(O)CN1CCN(CCN(CC(O)C(=O)OCCCCCCCCCC)CC(O)C(=O)OCCCCCCCCCC)CC1 (stereo not shown) [Compound L0182] | 3.25 × 10^7 | 4.99 × 10^6 | Particle size (nm) [1, 5]: 89.38 ± 0.09 nm; Particle size (nm) [1, 6]: 83.26 ± 0.68 nm; PDI [1, 5]: 0.16 ± 0.01; PDI [1, 6]: 0.14 ± 0.01 |
| – | – | CCCCCCCCCCCCOC(=O)C(O)CN1CCN(CCN(CC(O)C(=O)OCCCCCCCCCCCC)CC(O)C(=O)OCCCCCCCCCCCC)CC1 (stereo not shown) [Compound L0183] | 2.37 × 10^7 | 5.98 × 10^7 | Particle size (nm) [1, 7]: 75.73 ± 0.33 nm; Particle size (nm) [1, 8]: 94.49 ± 1.06 nm; PDI [1, 7]: 0.14 ± 0.01; PDI [1, 8]: 0.16 ± 0.01 |
| – | – | CCCCCCOCOCCCCCCOC(=O)C(O)CN1CCN(CCN(CC(O)C(=O)OCCCCCCOCOCCCCCC)CC(O)C(=O)OCCCCCCOCOCCCCCC)CC1 (stereo not shown) [Compound L0184] | 4.88 × 10^6 | 1.17 × 10^8 | Particle size (nm) [1, 9]: 128.20 ± 0.95 nm; Particle size (nm) [1, 10]: 119.60 ± 0.40 nm; PDI [1, 9]: 0.09 ± 0.01; PDI [1, 10]: 0.06 ± 0.00 |
| – | – | CCCCCCCCCCSSCCOC(=O)C(O)CN1CCN(CCN(CC(O)C(=O)OCCSSCCCCCCCCCC)CC(O)C(=O)OCCSSCCCCCCCCCC)CC1 (stereo not shown) [Compound L0185] | 2.52 × 10^7 | 2.72 × 10^6 | Particle size (nm) [1, 11]: 94.35 ± 0.52 nm; Particle size (nm) [1, 6]: 84.46 ± 1.39 nm; PDI [1, 11]: 0.13 ± 0.02; PDI [1, 6]: 0.20 ± 0.00 |
| 97.72 ± 1.19 | 0.22 ± 0.02 | CCCCCCCCC(CCCCCC)C(=O)OCCCCCCOC(=O)C(O)CN1CCN(CCN(CC(O)C(=O)OCCCCCCOC(=O)C(CCCCCC)CCCCCCCC)CC(O)C(=O)OCCCCCCOC(=O)C(CCCCCC)CCCCCCCC)CC1 (stereo not shown) [Compound L0188] | 1.87 × 10^7 | 1.61 × 10^8 | In vivo IVIS (liver) (mice; Table 2, IV): 4.17 × 10^7; In vivo IVIS (spleen) (mice; Table 2, IV): 4.65 × 10^7 |
| – | – | CCCCCCCCCCNC(=O)C(O)CN(CCCN1CCN(CCCN(CC(O)C(=O)NCCCCCCCCCC)CC(O)C(=O)NCCCCCCCCCC)CC1)CC(O)C(=O)NCCCCCCCCCC (stereo not shown) [Compound L0189] | 2.16 × 10^6 | 3.12 × 10^7 | Particle size (nm) [1, 12]: 106.80 ± 0.85 nm; Particle size (nm) [1, 13]: 85.92 ± 0.69 nm; PDI [1, 12]: 0.06 ± 0.04; PDI [1, 13]: 0.07 ± 0.02 |
| 121.87 ± 2.71 | 0.20 ± 0.01 | CCCCCCCCCCCCNC(=O)C(O)CN(CCCN1CCN(CCCN(CC(O)C(=O)NCCCCCCCCCCCC)CC(O)C(=O)NCCCCCCCCCCCC)CC1)CC(O)C(=O)NCCCCCCCCCCCC (stereo not shown) [Compound L0190] | 1.19 × 10^6 | – | – |
| 93.86 ± 0.59 | 0.11 ± 0.02 | CCCCCCCCCCCCNC(=O)C(O)CN(CC(=O)NCCCN1CCN(CCCNC(=O)CN(CC(O)C(=O)NCCCCCCCCCCCC)CC(O)C(=O)NCCCCCCCCCCCC)CC1)CC(O)C(=O)NCCCCCCCCCCCC (stereo not shown) [Compound L0193] | 2.43 × 10^5 | 4.33 × 10^5 | – |
| 109.10 ± 0.50 | 0.13 ± 0.00 | CCCCCCCCCCCCNC(=O)C(O)CN(CCC(=O)NCCCN1CCN(CCCNC(=O)CCN(CC(O)C(=O)NCCCCCCCCCCCC)CC(O)C(=O)NCCCCCCCCCCCC)CC1)CC(O)C(=O)NCCCCCCCCCCCC (stereo not shown) [Compound L0194] | 1.08 × 10^6 | 2.14 × 10^5 | – |
| 90.79 ± 0.65 | 0.17 ± 0.02 | CCCCCCCCCCCCNC(=O)C(O)CN(CCCC(=O)NCCCN1CCN(CCCNC(=O)CCCN(CC(O)C(=O)NCCCCCCCCCCCC)CC(O)C(=O)NCCCCCCCCCCCC)CC1)CC(O)C(=O)NCCCCCCCCCCCC (stereo not shown) [Compound L0195] | 6.81 × 10^5 | 4.54 × 10^5 | – |
| 89.18 ± 0.22 | 0.11 ± 0.01 | CCCCCCC(CCCCCC)C(=O)OCCCCOC(=O)C(O)CN(CCCN1CCN(CCCN(CC(O)C(=O)OCCCCOC(=O)C(CCCCCC)CCCCCC)CC(O)C(=O)OCCCCOC(=O)C(CCCCCC)CCCCCC)CC1)CC(O)C(=O)OCCCCOC(=O)C(CCCCCC)CCCCCC (stereo not shown) [Compound L0196] | 1.82 × 10^8 | 2.00 × 10^9 | in vivo delivery efficiency as compared to the benchmark compound SM102 (mice; Table 2): superior in vivo delivery efficiency |
| 102.47 ± 0.25 | 0.13 ± 0.02 | CCCCCCCCC(CCCCCC)C(=O)OCCCCCCOC(=O)C(O)CN(CCCN1CCN(CCCN(CC(O)C(=O)OCCCCCCOC(=O)C(CCCCCC)CCCCCCCC)CC(O)C(=O)OCCCCCCOC(=O)C(CCCCCC)CCCCCCCC)CC1)CC(O)C(=O)OCCCCCCOC(=O)C(CCCCCC)CCCCCCCC (stereo not shown) [Compound L0197] | 3.81 × 10^6 | 5.97 × 10^8 | In vivo IVIS (liver) (mice; Table 2, IV): 2.34 × 10^6; In vivo IVIS (spleen) (mice; Table 2, IV): 7.26 × 10^7 |
| 90.47 ± 0.74 | 0.17 ± 0.01 | CCCCCCCCCCNC(=O)C(O)CN(CCN1CCN(CCN(CC(O)C(=O)NCCCCCCCCCC)CC(O)C(=O)NCCCCCCCCCC)CC1)CCN(CC(O)C(=O)NCCCCCCCCCC)CC(O)C(=O)NCCCCCCCCCC (stereo not shown) [Compound L0198] | 9.58 × 10^6 | 4.61 × 10^7 | – |
| 119.70 ± 0.61 | 0.07 ± 0.01 | CC/C=C\CCOCOCCCCCCOC(=O)C(O)CN(CCN1CCN(CCN(CC(O)C(=O)OCCCCCCOCOCC/C=C\CC)CC(O)C(=O)OCCCCCCOCOCC/C=C\CC)CC1)CCN(CC(O)C(=O)OCCCCCCOCOCC/C=C\CC)CC(O)C(=O)OCCCCCCOCOCC/C=C\CC (stereo not shown) [Compound L0201] | 2.18 × 10^6 | 4.46 × 10^6 | In vivo IVIS (liver) (mice; Table 2, IV): 5.29 × 10^8; In vivo IVIS (spleen) (mice; Table 2, IV): 7.89 × 10^7; in vivo delivery efficiency as compared to the benchmark compound SM102 (mice; Table 2): superior in vivo delivery efficiency |
| 114.43 ± 0.96 | 0.07 ± 0.02 | CCCC/C=C\CCOCOCCCCOC(=O)C(O)CN(CCN1CCN(CCN(CC(O)C(=O)OCCCCOCOCC/C=C\CCCC)CC(O)C(=O)OCCCCOCOCC/C=C\CCCC)CC1)CCN(CC(O)C(=O)OCCCCOCOCC/C=C\CCCC)CC(O)C(=O)OCCCCOCOCC/C=C\CCCC (stereo not shown) [Compound L0202] | 9.20 × 10^7 | 3.73 × 10^9 | in vivo delivery efficiency as compared to the benchmark compound SM102 (mice; Table 2): superior in vivo delivery efficiency |
| – | – | CCCCCCCCCCCCOC(=O)CCN(CCCN1CCN(CCCN(CCC(=O)OCCCCCCCCCCCC)CCC(=O)OCCCCCCCCCCCC)CC1)CCC(=O)OCCCCCCCCCCCC [L0191-Control, reference compound] | – | – | delivery efficiency, times lower than the hydroxy compound (L0191 or L0199) (mice; IM administration): ~20 times; delivery efficiency, times lower than the hydroxy compound (L0191 or L0199) (mice; IV administration): about 420 times; In vivo IVIS (mice; Table 4, IM): 1.07 × 10^6; In vivo IVIS (mice; Table 4, IV): 2.30 × 10^6 |
